Measured values reported in patent US9545384B2, “Nanoparticles comprising drug, a non-ionizable cellulosic polymer and tocopheryl polyethylene glocol succinate” (Bend Research, Inc., priority 2007, dated 2017).
Values after ≈ are worked out from the molar mass of the structure shown.

Experiments:
[1] = Solubility of drug in model fasted duodenal (MFD) solution; assay type: physicochemical; conditions: fassgf or other biorelevant
[2] = for Observations: pH 6.5
Method: The polymer is a poorly aqueous soluble non-ionizable cellulosic polymer. […] An appropriate PBS solution is an aqueous solution comprising 20 mM sodium phosphate (Na2HPO4), 47 mM potassium phosphate (KH2PO4), 87 mM NaCl, and 0.2 mM KCl, adjusted to pH 6.5 with NaOH. A test to determine whether the polymer is insoluble may be performed as follows. The polymer is initially present in bulk powder form with average particle sizes of greater than about 1 micron. The polymer alone is administered at a concentration of 0.2 mg/mL to the PBS solution and stirred for approximately 1 hour at room temperature. Next, a nylon 0.45 μm filter is weighed, and the polymer solution is filtered. The filter is dried overnight at 40° C., and weighed the following morning. The amount of polymer dissolved is calculated from the amount of polymer added to the PBS solution minus the amount of polymer remaining on the filter (mg). […] These polymers were evaluated using the following procedure to determine their aqueous solubility. First, 0.2 mg/mL of the polymer is added to a PBS solution consisting of 20 mM Na2HPO4, 47 mM KH2PO4, 87 mM NaCl, and 0.2 mM KCl, adjusted to pH 6.5 with NaOH. The polymer is stirred in the PBS solution for approximately 1 hour at room temperature. Next, the polymer solution is filtered through a nylon 0.45 μm filter that had been weighed dry prior to filtration. The filter is dried overnight at 40° C., and weighed the following morning. The amount of soluble polymer is calculated from amount of polymer added to form the polymer solution minus the amount of polymer remaining on the filter.

[3] = Solubility of drug in water; assay type: physicochemical
Log P = assay type: physicochemical; conditions: octanol/water
Text: The first property of hydrophobic drugs is that they are extremely hydrophobic. Log P, defined as the base 10 logarithm of the ratio of the drug solubility in octanol to the drug solubility in water, is a widely accepted measure of hydrophobicity. By “extremely hydrophobic” is meant that the Log P value of the drug is at least 4.0, preferably at least 4.5, and most preferably at least 5.0. Log P may be measured experimentally or calculated using methods known in the art. When using a calculated value for Log P, the highest value calculated using any generally accepted method for calculating Log P is used. Calculated Log P values are often referred to by the calculation method, such as C log P, A log P, and M log P. The Log P may also be estimated using fragmentation methods, such as Crippen's fragmentation method (27 J. Chem. Inf. Comput. Sci. 21 (1987)); Viswanadhan's fragmentation method (29 J. Chem. Inf. Comput. Sci. 163 (1989)); or Broto's fragmentation method (19 Eur. J. Med. Chem.-Chim. Theor. 71 (1984). Preferably the Log P value is calculated by using the average value estimated using Crippen's, Viswanadhan's, and Broto's fragmentation methods.

| solubility [1] [µg/mL] | Soluble at pH 6.5 [2] [mg/mL] | Observations [2] | solubility [3] [µg/mL] | Compound | other results |
| --- | --- | --- | --- | --- | --- |
| ~11 (≈ 18.4 µM) | – | – | – | CC[C@@H]1C[C@H](N(Cc2cc(C(F)(F)F)cc(C(F)(F)F)c2)C(C)=O)c2cc(C(F)(F)F)ccc2N1C(=O)OC(C)C [Drug 2, [2R,4S]-4-[acetyl-(3,5-bis-trifluoromethyl-benzyl)-amino]-2-ethyl-6-trifluoromethyl-3,4-dihydro-2H-quinoline-1-carboxylic acid isopropyl ester] | – |
| – | – | – | < 0.1 | CCOC(=O)N1c2ccc(C(F)(F)F)cc2[C@@H](N(Cc2cc(C(F)(F)F)cc(C(F)(F)F)c2)C(=O)OC)C[C@H]1CC [Torcetrapib, [2R,4S]4-[(3,5-bis-trifluoromethyl-benzyl)-methoxycarbonyl-amino]-2-ethyl-6-trifluoromethyl-3,4-dihydro-2H-quinoline-1-carboxylic acid ethyl ester] | – |

More lines, now with the values behind:

| Compound | solubility [1] [µg/mL] | Soluble at pH 6.5 [2] [mg/mL] | Observations [2] | solubility [3] [µg/mL] | other results |
| --- | --- | --- | --- | --- | --- |
| Cellulose Acetate | – | 0.03 | Fine particle | – | – |
| Cc1ccc(-c2cc(C(F)(F)F)nn2-c2ccc(S(N)(=O)=O)cc2)cc1 [Drug 3, 4-[5-(4-methylphenyl)-3-(trifluoromethyl)-1H-pyrazol-1-yl]benzenesulfonamide, reference compound] | ~40 (≈ 105 µM) | – | – | – | – |
| Ethylcellulose | – | <0.001 | Fine particle | – | – |
| Cc1onc(-c2ccccc2)c1-c1ccc(S(N)(=O)=O)cc1 [Drug 1, 4-(5-methyl-3-phenyl-4-isoxazolyl)benzenesulfonamide] | – | – | – | ~10 (≈ 31.8 µM) | logP (Log P): ~3 |
